Measurements reported in article PMC9295256 (Journal of medicinal chemistry, 2021).
Entries after “also recorded” stand apart in the source; their conditions may differ. Square brackets hold non-standard residues; d marks the D form. Peptide text beside a SMILES is read from it. * marks the point of attachment. Boc = CC(C)(C)OC(=O)*

The compounds below were run against recombinant rat Nln (Rattus norvegicus, UniProt P42676) (assay: Nln activation, continuous quenched fluorescence substrate). Details: not given.
Chain of recombinant rat Nln (P42676 38-704): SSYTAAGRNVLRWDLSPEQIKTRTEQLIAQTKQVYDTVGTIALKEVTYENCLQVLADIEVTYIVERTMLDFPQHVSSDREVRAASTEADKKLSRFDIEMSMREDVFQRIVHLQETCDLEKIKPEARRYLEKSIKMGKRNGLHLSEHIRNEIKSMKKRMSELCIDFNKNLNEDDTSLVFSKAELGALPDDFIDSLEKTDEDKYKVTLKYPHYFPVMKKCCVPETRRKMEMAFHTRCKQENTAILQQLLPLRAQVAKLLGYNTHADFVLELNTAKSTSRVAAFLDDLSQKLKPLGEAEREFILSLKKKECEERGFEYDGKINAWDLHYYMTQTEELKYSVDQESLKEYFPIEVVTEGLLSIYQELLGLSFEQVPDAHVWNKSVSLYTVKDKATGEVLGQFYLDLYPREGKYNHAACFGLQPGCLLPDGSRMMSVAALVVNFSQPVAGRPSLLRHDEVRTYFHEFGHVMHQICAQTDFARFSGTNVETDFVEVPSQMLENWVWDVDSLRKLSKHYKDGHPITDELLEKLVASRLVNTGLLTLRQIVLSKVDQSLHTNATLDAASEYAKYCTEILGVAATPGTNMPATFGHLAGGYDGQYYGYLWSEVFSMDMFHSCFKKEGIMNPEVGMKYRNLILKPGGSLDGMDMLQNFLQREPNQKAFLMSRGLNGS
Format: biochemical

Compound	A50, half maximal activation concentration (95% CI)	Amax, maximum % activation achieved (95% CI)	Nln activation, result in words
N-(2-(1H-Indol-3-yl)ethyl)-3-(1H-imidazol-4-yl)propanamide [Compound 9c]	Inactive	Inactive	complete amelioration of activity; also recorded: ameliorates activity
N[C@H](Cc1c[nH]cn1)C(=O)NCc1cccc(C(F)(F)F)c1 [Compound 5m, (R)-2-Amino-3-(1H-imidazol-4-yl)-N-(3-(trifluoromethyl)benzyl)-propanamide]		282 (258.4 to 309.1) %	
COc1cccc(CNC(=O)[C@H](N)Cc2cnc[nH]2)c1 [Compound 5g, (R)-2-Amino-3-(1H-3l4-imidazol-4-yl)-N-(3-methoxybenzyl)-propanamide]		477.1 (444 to 516) %	
N[C@H](Cc1c[nH]cn1)C(=O)NCc1ccc(SC(F)(F)F)cc1 [Compound 5s, (R)-2-Amino-3-(1H-imidazol-4-yl)-N-(4-((trifluoromethyl)thio)-benzyl)propanamide]		251.5 (233.7 to 271.3) %	
N[C@H](Cc1c[nH]cn1)C(=O)NCCc1ccc(-c2ccccc2)cc1 [Compound 4r, (R)-N-(2-([1,1′-biphenyl]-4-yl)ethyl)-2-amino-3-(1H-imidazol-4-yl)propanamide]		269.7 (256.8 to 283.4) %	
N[C@@H](Cc1c[nH]cn1)C(=O)NCCc1ccc(-c2ccccc2)cc1 [Compound 4q, (S)-N-(2-([1,1′-Biphenyl]-4-yl)ethyl)-2-amino-3-(1H-imidazol-4-yl)propanamide]		258.2 (244 to 273.4) %	
N[C@H](Cc1c[nH]cn1)C(=O)NCc1ccccc1C(F)(F)F [Compound 5k, (R)-2-Amino-3-(1H-imidazol-4-yl)-N-(2-(trifluoromethyl)benzyl)-propanamide]		345.8 (317.5 to 378.3) %	
N[C@@H](Cc1cnc[nH]1)C(=O)N[C@@H](Cc1ccccc1)C(=O)O [Compound 3, His–Phe] (H-His-Phe-OH)		442.3 (418.8 to 467.6) %	
N[C@@H](Cc1c[nH]cn1)C(=O)NCCc1ccc2ccccc2c1 [Compound 9f, (S)-2-Amino-3-(1H-imidazol-4-yl)-N-(2-(naphthalen-2-yl)ethyl)-propanamide]		323.7 (310.3 to 337.9) %	
COc1cccc(CNC(=O)[C@@H](N)Cc2c[nH]cn2)c1 [Compound 5f, (S)-2-Amino-3-(1H-3l4-imidazol-4-yl)-N-(3-methoxybenzyl)-propanamide]		327.5 (309.7 to 348.2) %	
N[C@@H](Cc1c[nH]cn1)C(=O)NCc1ccc(SC(F)(F)F)cc1 [Compound 5r, (S)-2-Amino-3-(1H-imidazol-4-yl)-N-(4-((trifluoromethyl)thio)-benzyl)propanamide]		287.5 (277.4 to 298.4) %	
CC(C)(C)OC(=O)N[C@@H](Cc1ccc(O)cc1)C(=O)N[C@H](Cc1ccccc1)C(=O)O [Compound 4b] (Boc-Tyr-[dF]-OH)			inactive
N[C@H](Cc1c[nH]cn1)C(=O)NCCc1ccc([N+](=O)[O-])cc1 [Compound 4p, (R)-2-Amino-3-(1H-imidazol-4-yl)-N-(4-nitrophenethyl)-propanamide]		267.5 (250.1 to 287.1) %	
N[C@@H](Cc1c[nH]cn1)C(=O)NCc1ccccc1 [Compound 5a, (S)-2-Amino-N-benzyl-3-(1H-imidazol-4-yl)propanamide]		152.2 (137.3 to 171.5) %	
COc1ccccc1CNC(=O)[C@@H](N)Cc1c[nH]cn1 [Compound 5d, (S)-2-Amino-3-(1H-3l4-imidazol-4-yl)-N-(2-methoxybenzyl)-propanamide]		385.8 (363.8 to 410.5) %	
N[C@@H](Cc1ccc(O)cc1)C(=O)N[C@H](Cc1c[nH]cn1)C(=O)O [Compound 4a, H-Tyr-His-OH]			complete amelioration of Nln activation
COc1ccc(CNC(=O)[C@@H](N)Cc2c[nH]cn2)cc1 [Compound 5b, (S)-2-Amino-3-(1H-3l4-imidazol-4-yl)-N-(4-methoxybenzyl)-propanamide]		428.8 (373 to 523.5) %	
COc1ccccc1CNC(=O)[C@H](N)Cc1c[nH]cn1 [Compound 5e, (R)-2-Amino-3-(1H-3l4-imidazol-4-yl)-N-(2-methoxybenzyl)-propanamide]		324.9 (304 to 349) %	

Same assay, conditions: 100% = normal enzyme turnover; mean of n = 4, 95% CI in parentheses

Compound	Amax, maximum % activation achieved (95% CI)
COc1ccc(CCNC(=O)[C@H](N)Cc2c[nH]cn2)cc1 [Compound 4f, (R)-2-Amino-3-(1H-imidazol-4-yl)-N-(4-methoxyphenethyl)-propanamide]	378.3 (350.5 to 411.9) %
N[C@H](Cc1c[nH]cn1)C(=O)Nc1ccccc1 [Compound 6b, (R)-2-Amino-3-(1H-imidazol-4-yl)-N-phenylpropanamide]	440.3 (414.9 to 470.4) %
N[C@H](Cc1c[nH]cn1)C(=O)NCCCCc1ccccc1 [Compound 8b, (R)-2-Amino-3-(1H-imidazol-4-yl)-N-(4-phenylbutyl)-propanamide]	233.8 (215.9 to 254.8) %
N[C@@H](Cc1c[nH]cn1)C(=O)NCc1ccc2ccccc2c1 [Compound 10a, (S)-2-Amino-3-(1H-imidazol-4-yl)-N-(naphthalen-2-ylmethyl)-propanamide]	210.9 (191.7 to 231.9) %
CC(C)(C)OC(=O)N[C@@H](Cc1ccc(O)cc1)C(=O)N[C@H](Cc1ccccc1)C(=O)O [Compound 4b] (Boc-Tyr-[dF]-OH)	Inactive
N[C@@H](Cc1c[nH]cn1)C(=O)Nc1ccccc1 [Compound 6a, (S)-2-Amino-3-(1H-imidazol-4-yl)-N-phenylpropanamide]	466.6 (402.3 to 579.7) %
N[C@@H](Cc1c[nH]cn1)C(=O)NCCCCc1ccccc1 [Compound 8a, (S)-2-Amino-3-(1H-imidazol-4-yl)-N-(4-phenylbutyl)-propanamide]	328 (309 to 351) %
N[C@H](Cc1c[nH]cn1)C(=O)NCc1ccc2ccccc2c1 [Compound 10b, (R)-2-Amino-3-(1H-imidazol-4-yl)-N-(naphthalen-2-ylmethyl)-propanamide]	197.5 (184.9 to 214.8) %
N[C@@H](Cc1c[nH]cn1)C(=O)NCCCc1ccccc1 [Compound 7a, (S)-2-Amino-3-(1H-imidazol-4-yl)-N-(3-phenylpropyl)-propanamide]	288.1 (273.6 to 303.8) %
COc1cccc(CCNC(=O)[C@H](N)Cc2c[nH]cn2)c1 [Compound 4j, (R)-2-Amino-3-(1H-imidazol-4-yl)-N-(3-methoxyphenethyl)-propanamide]	255.3 (230.5 to 284.8) %
N[C@@H](Cc1c[nH]cn1)C(=O)NCCc1ccccc1 [Compound 4c, (S)-2-Amino-3-(1H-imidazol-4-yl)-N-phenethylpropanamide]	337.2 (302 to 378.6) %

Same assay, conditions: recombinant rat Nln, QFS 15 μM, 37 °C; mean of n = 4, 95% CI in parentheses

Compound	A50, half maximal activation concentration (95% CI)
CC(C)(C)OC(=O)N[C@@H](Cc1ccc(O)cc1)C(=O)N[C@H](Cc1ccccc1)C(=O)O [Compound 4b] (Boc-Tyr-[dF]-OH)	Inactive
